{
  "source": "ChEMBL document CHEMBL1157648",
  "about": "“Structural-based design and synthesis of novel 9-deazaguanine derivatives having a phosphate mimic as multi-substrate analogue inhibitors for mammalian PNPs” (Bioorg Med Chem, 2010)",
  "key": {"[1]": {"assay": "Dissociation constant, pKa at 2 mg by spectrophotometry"}, "[2]": {"target": "T1, Purine nucleoside phosphorylase (Bos taurus, UniProt P55859)", "T1 sequence (P55859 whole entry)": "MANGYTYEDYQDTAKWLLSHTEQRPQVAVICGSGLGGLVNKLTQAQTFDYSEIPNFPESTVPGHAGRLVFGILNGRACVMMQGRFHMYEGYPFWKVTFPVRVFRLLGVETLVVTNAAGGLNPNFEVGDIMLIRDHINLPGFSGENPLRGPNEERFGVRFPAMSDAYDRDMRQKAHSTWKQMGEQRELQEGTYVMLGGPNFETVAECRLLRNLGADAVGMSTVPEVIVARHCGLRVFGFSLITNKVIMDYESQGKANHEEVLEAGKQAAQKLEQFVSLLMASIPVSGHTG", "assay": "Inhibition of calf spleen PNP assessed as inhibition of 7-methylguanosine phosphorolysis after 50 mins by spectrophotometry in presence of 1 mM inorganic phosphate", "details": "read-out: Ki(app)"}, "[3]": {"target": "T2, Purine nucleoside phosphorylase (Homo sapiens, UniProt P00491)", "T2 sequence (P00491 whole entry)": "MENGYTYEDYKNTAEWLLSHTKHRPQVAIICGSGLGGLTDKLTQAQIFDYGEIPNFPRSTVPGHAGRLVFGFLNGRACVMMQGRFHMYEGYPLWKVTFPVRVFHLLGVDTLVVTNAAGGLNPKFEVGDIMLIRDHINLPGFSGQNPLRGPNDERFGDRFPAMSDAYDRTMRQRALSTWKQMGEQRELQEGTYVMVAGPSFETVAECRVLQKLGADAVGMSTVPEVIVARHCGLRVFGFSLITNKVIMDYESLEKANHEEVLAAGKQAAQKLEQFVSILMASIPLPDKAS", "assay": "Inhibition of human erythrocyte PNP assessed as inhibition of 7-methylguanosine phosphorolysis after 50 mins by spectrophotometry in presence of 1 mM inorganic phosphate", "details": "read-out: Ki(app)"}, "[4]": {"target": "T2, Purine nucleoside phosphorylase", "assay": "Inhibition of human erythrocyte PNP assessed as inhibition of 25 uM 7-methylguanosine phosphorolysis by spectrophotometry in presence of 1 mM inorganic phosphate"}, "[5]": {"target": "T3, Purine nucleoside phosphorylase (Bos taurus) (UniProt P55859)", "T3 sequence (whole entry)": "T1 sequence (P55859 whole entry)", "details": "Spleen"}, "[6]": {"target": "T4, Purine nucleoside phosphorylase (Homo sapiens) (UniProt P00491)", "T4 sequence (whole entry)": "T2 sequence (P00491 whole entry)", "details": "4.99 to 18.71 uM"}, "[7]": {"target": "T3, Purine nucleoside phosphorylase (Bos taurus)", "details": "Spleen", "remark": "listed apart in the source"}, "[8]": {"target": "T1, Purine nucleoside phosphorylase"}},
  "note": "Several values for one entry are separate records, joined by “and”; a condition that tells them apart may be missing. Identical values can stand only once. Activity calls are given as the source filed them. No cut-off for these calls is given here.",
  "data": [
    {"smiles": "Cn1c(N)nc2ccn(C)c2c1=O", "values": [
      {"measurement": "pKa", "setting": "[1]", "result": 10.6}
    ]},
    {"smiles": "Nc1nc2c(CCCCCCCC(F)(F)P(=O)(O)O)c[nH]c2c(=O)[nH]1", "values": [
      {"measurement": "Ki", "setting": "[2]", "result": "6.1 nM and 0.94 nM"},
      {"measurement": "Ki", "setting": "[3]", "result": 5.6, "unit": "nM"}
    ]},
    {"smiles": "CCOP(=O)(OCC)C(F)(F)CCCc1c[nH]c2c(=O)[nH]c(N)nc12", "values": [
      {"measurement": "IC50", "setting": "[4]", "result": 170, "unit": "nM"}
    ]},
    {"smiles": "Nc1nc2c(CCCCC(F)(F)P(=O)(O)O)c[nH]c2c(=O)[nH]1", "values": [
      {"measurement": "Kieq", "setting": "[5]", "result": 0.085, "unit": "nM"},
      {"measurement": "inhibition", "setting": "[6]", "result": "Active"}
    ]},
    {"smiles": "O=c1[nH]cnc2c([C@@H]3N[C@H](CO)[C@@H](O)[C@H]3O)c[nH]c12", "note": "[FORODESINE]", "values": [
      {"measurement": "Kieq", "setting": "[7]", "result": 0.023, "unit": "nM"},
      {"measurement": "Ki", "setting": "[8]", "result": 41, "unit": "nM"}
    ]},
    {"smiles": "Cn1c(N)nc2cc[nH]c2c1=O", "values": [
      {"measurement": "pKa", "setting": "[1]", "result": 5.1}
    ]},
    {"smiles": "Nc1nc(O)c2ncn(CCCCC(F)(F)P(=O)(O)O)c2n1", "values": [
      {"measurement": "Kieq", "setting": "[5]", "result": 0.72, "unit": "nM"}
    ]}
  ]
}
